Assay results as given in patent US7053177B1, “Random peptides that bind to gastro-intestinal tract (GIT) transport receptors and related methods” (Cytogen Corporation, priority 1997, dated 2006).
Peptide text beside a SMILES is read from it. * marks the point of attachment. Dansyl = CN(C)c1cccc2c(S(=O)(=O)*)cccc12; K(dns) = dansyl-lysine

Tested on: P100 membrane fraction of Caco-2 cells
Experiment: Dansylated peptide ELISA: relative binding of PAX2 and HAX42 peptides to P100 fractions (ratio to ZElan021)
Conditions: ratio to ZElan021 = 1.00
Procedure: The peptides and proteins were analyzed by a dansylated peptide ELISA method in which 96 well plates were coated overnight at 4° C. with 100 μl/well coating protein (normally 100 μg/ml P100 membrane fraction) in 0.05M carbonate buffer pH9.6. Nonspecific binding was blocked using 200 μl/well, 2% Marvel/PBS for 2 hours at 37° C. prior to incubation with dansylated peptides. The plates were washed three times with PBS/0.05% Tween 20 and after each subsequent incubation step. […] A buffer blank control was included to ensure that background binding to plastic was not due to the antibodies used in the assay system. […] Plates were developed using 75 μl/well Bionostics TMB substrate and incubated for approximately 10 minutes. The developing reaction was stopped using Bionostics Red Stop solution (25 μl/well), and the optical density of the plates was read at 650 nm. […]

Compound | Binding value at 50 μg/ml (PAX2 peptides, second column) | Binding value at 20 μg/ml (PAX2 peptides, first column) | Binding value at 50 μg/ml (Jackson Ab) (PAX2 peptides) | Binding value at 50 μg/ml (Southern Ab) (PAX2 peptides) | Binding value at 50 μg/ml (PAX2 peptides, first column) | further results
CC(C)C[C@H](NC(=O)[C@H](CCCNC(=N)N)NC(=O)[C@H](CO)NC(=O)[C@@H](NC(=O)[C@H](CCCCN)NC(=O)[C@H](CC(N)=O)NC(=O)[C@H](CCCNC(=N)N)NC(=O)[C@@H](NC(=O)[C@H](CC(N)=O)NC(=O)[C@H](CCCNC(=N)N)NC(=O)[C@@H](N)CCCCNS(=O)(=O)c1cccc2c(N(C)C)cccc12)[C@@H](C)O)[C@@H](C)O)C(=O)N[C@@H](CO)C(=O)N[C@@H](C)C(=O)N[C@@H](CC(N)=O)C(=O)N1CCC[C@H]1C(=O)N[C@@H](Cc1c[nH]cn1)C(=O)N[C@@H](CCCNC(=N)N)C(=O)N[C@@H](CO)C(=O)N[C@@H](Cc1c[nH]cn1)C(=O)N[C@@H](CCCNC(=N)N)C(N)=O [ZElan084] (H-K(Dansyl)RNTRNKTSRLSANPHRSHR-NH2) | 0.77 | – | – | – | – | Binding value at 20 μg/ml (PAX2 peptides, second column): 0.93
CC(C)C[C@H](NC(=O)[C@H](CC(N)=O)NC(=O)[C@@H](N)CCCCNS(=O)(=O)c1cccc2c(N(C)C)cccc12)C(=O)N[C@@H](CCCNC(=N)N)C(=O)N[C@@H](CO)C(=O)N[C@@H](CC(=O)O)C(=O)N[C@@H](CC(N)=O)C(=O)N[C@@H](C)C(=O)N[C@@H](CCCCN)C(=O)N[C@@H](CCC(=O)O)C(=O)N1CCC[C@H]1C(=O)NCC(=O)N[C@@H](CC(=O)O)C(=O)N[C@@H](Cc1ccc(O)cc1)C(=O)N[C@@H](CC(N)=O)C(=O)N[C@@H](CS)C(=O)N[C@@H](CS)C(=O)NCC(=O)N[C@@H](CC(N)=O)C(=O)NCC(=O)N[C@@H](CC(N)=O)C(=O)N[C@@H](CO)C(=O)N[C@H](C(=O)NCC(=O)N[C@@H](CCCNC(=N)N)C(=O)N[C@@H](CCCCN)C(=O)N[C@H](C(=O)N[C@@H](Cc1ccccc1)C(=O)N[C@@H](CC(N)=O)C(=O)N[C@@H](CCCNC(=N)N)C(N)=O)C(C)C)[C@@H](C)O [ZElan071] (H-K(Dansyl)NLRSDNAKEPGDYNCCGNGNSTGRKVFNR-NH2) | – | – | – | – | – | Binding value at 50 μg/ml (HAX42 peptides, first column): 0.89; Binding value at 50 μg/ml (HAX42 peptides, second column): 0.75
CC(C)C[C@H](NC(=O)[C@H](CCCNC(=N)N)NC(=O)[C@H](CCCNC(=N)N)NC(=O)[C@H](CC(N)=O)NC(=O)[C@H](Cc1c[nH]cn1)NC(=O)[C@H](C)NC(=O)[C@H](CO)NC(=O)[C@@H](N)CCCCNS(=O)(=O)c1cccc2c(N(C)C)cccc12)C(=O)N[C@@H](CCCNC(=N)N)C(=O)N[C@H](C(=O)N[C@@H](CCCNC(=N)N)C(N)=O)[C@@H](C)O [ZElan074] (H-K(Dansyl)SAHNRRLRTR-NH2) | 0.52 | 0.06 | 0.71 | 0.48 | 0.82 | –
CC(C)C[C@H](NC(=O)[C@H](CCCNC(=N)N)NC(=O)[C@H](CCCNC(=N)N)NC(=O)[C@H](CC(N)=O)NC(=O)[C@H](Cc1c[nH]cn1)NC(=O)[C@H](CO)NC(=O)[C@H](CO)NC(=O)[C@@H](N)CCCCNS(=O)(=O)c1cccc2c(N(C)C)cccc12)C(=O)N[C@@H](CCCNC(=N)N)C(=O)N[C@H](C(=O)N[C@@H](CCCNC(=N)N)C(N)=O)[C@@H](C)O [ZElan035] (H-K(Dansyl)SSHNRRLRTR-NH2) | 0.77 | 0.12 | – | – | 0.81 | Binding value at 20 μg/ml (PAX2 peptides, second column): 0.43
CC(C)C[C@H](NC(=O)[C@H](CCCNC(=N)N)NC(=O)[C@H](C)NC(=O)[C@H](CC(N)=O)NC(=O)[C@H](Cc1c[nH]cn1)NC(=O)[C@H](CO)NC(=O)[C@H](CO)NC(=O)[C@@H](N)CCCCNS(=O)(=O)c1cccc2c(N(C)C)cccc12)C(=O)N[C@@H](CCCNC(=N)N)C(=O)N[C@H](C(=O)N[C@@H](CCCNC(=N)N)C(N)=O)[C@@H](C)O [ZElan077] (H-K(Dansyl)SSHNARLRTR-NH2) | 0.54 | 0.20 | 0.73 | 0.52 | 0.76 | –
CC(C)C[C@H](NC(=O)[C@H](CCCNC(=N)N)NC(=O)[C@H](CCCNC(=N)N)NC(=O)[C@H](C)NC(=O)[C@H](Cc1c[nH]cn1)NC(=O)[C@H](CO)NC(=O)[C@H](CO)NC(=O)[C@@H](N)CCCCNS(=O)(=O)c1cccc2c(N(C)C)cccc12)C(=O)N[C@@H](CCCNC(=N)N)C(=O)N[C@H](C(=O)N[C@@H](CCCNC(=N)N)C(N)=O)[C@@H](C)O [ZElan076] (H-K(Dansyl)SSHARRLRTR-NH2) | 0.41 | 0.08 | 0.60 | 0.42 | 1.00 | –
CN(C)c1cccc2c(S(=O)(=O)NCCCC[C@H](N)C(=O)N[C@@H](CC(N)=O)C(=O)N[C@@H](CCCNC(=N)N)C(=O)N[C@@H](CCCNC(=N)N)C(=O)N[C@@H](CCCNC(=N)N)C(=O)N3CCC[C@H]3C(=O)N[C@@H](CO)C(N)=O)cccc12 [ZElan067, H2N-K(dns)NRRRPS-CONH2] (H-K(Dansyl)NRRRPS-NH2) | – | – | – | – | – | Binding value at 20 μg/ml (HAX42 peptides): 0.08; Binding value at 50 μg/ml (HAX42 peptides, first column): 0.52; Binding value at 50 μg/ml (HAX42 peptides, second column): 0.40
CC(C)C[C@H](NC(=O)[C@H](CCCNC(=N)N)NC(=O)[C@H](CCCNC(=N)N)NC(=O)[C@@H](N)CCCCNS(=O)(=O)c1cccc2c(N(C)C)cccc12)C(=O)N[C@@H](CCCNC(=N)N)C(=O)N[C@H](C(=O)N[C@@H](CCCNC(=N)N)C(=O)N[C@@H](CO)C(=O)N[C@@H](CCCNC(=N)N)C(N)=O)[C@@H](C)O [ZElan057] (H-K(Dansyl)RRLRTRSR-NH2) | 0.25 | 0.08 | – | – | 0.56 | –
CC(C)C[C@H](NC(=O)[C@H](C)NC(=O)[C@H](Cc1c[nH]cn1)NC(=O)[C@H](CC(=O)O)NC(=O)[C@H](CO)NC(=O)[C@@H](N)CCCCNS(=O)(=O)c1cccc2c(N(C)C)cccc12)C(=O)NCC(=O)N[C@H](C(=O)N[C@@H](CC(N)=O)C(=O)N[C@@H](CC(C)C)C(=O)N[C@@H](CCCNC(=N)N)C(=O)N[C@@H](CO)C(=O)N[C@@H](CC(=O)O)C(=O)N[C@@H](CC(N)=O)C(=O)N[C@@H](C)C(=O)N[C@@H](CCCCN)C(=O)N[C@@H](CCC(=O)O)C(=O)N1CCC[C@H]1C(=O)NCC(N)=O)[C@@H](C)O [ZElan062] (H-K(Dansyl)SDHALGTNLRSDNAKEPG-NH2) | – | – | – | – | – | Binding value at 20 μg/ml (HAX42 peptides): 0.11; Binding value at 50 μg/ml (HAX42 peptides, first column): 0.42; Binding value at 50 μg/ml (HAX42 peptides, second column): 0.34
CC(C)C[C@H](NC(=O)[C@H](CCCNC(=N)N)NC(=O)[C@H](CCCNC(=N)N)NC(=O)[C@H](CC(N)=O)NC(=O)[C@H](Cc1c[nH]cn1)NC(=O)[C@H](CO)NC(=O)[C@H](CO)NC(=O)[C@@H](N)CCCCNS(=O)(=O)c1cccc2c(N(C)C)cccc12)C(=O)N[C@@H](C)C(=O)N[C@H](C(=O)N[C@@H](CCCNC(=N)N)C(N)=O)[C@@H](C)O [ZElan080] (H-K(Dansyl)SSHNRRLATR-NH2) | 0.45 | 0.23 | 0.67 | 0.38 | 0.84 | –
CC(C)C[C@H](NC(=O)[C@H](CCCNC(=N)N)NC(=O)[C@H](CCCNC(=N)N)NC(=O)[C@H](CC(N)=O)NC(=O)[C@H](Cc1c[nH]cn1)NC(=O)[C@H](CO)NC(=O)[C@H](CO)NC(=O)[C@H](Cc1c[nH]cn1)NC(=O)[C@H](CCCCN)NC(=O)[C@H](C)NC(=O)[C@H](CC(N)=O)NC(=O)[C@@H](NC(=O)[C@@H](N)CCCCNS(=O)(=O)c1cccc2c(N(C)C)cccc12)[C@@H](C)O)C(=O)N[C@@H](CCCNC(=N)N)C(=O)N[C@H](C(=O)N[C@@H](CCCNC(=N)N)C(=O)N[C@@H](CO)C(=O)N[C@@H](CCCNC(=N)N)C(=O)N1CCC[C@H]1C(=O)N[C@@H](CC(N)=O)C(N)=O)[C@@H](C)O [ZElan032] (H-K(Dansyl)TNAKHSSHNRRLRTRSRPN-NH2) | – | – | – | – | 0.95 | –
H2N—K(dns)SDNAKEPGDYNCCGNGNSTG ({K(dns)}-SDNAKEPGDYNCCGNGNSTG-NH2; cysteine pairing not given here) [ZElan088] | – | – | – | – | – | Binding value at 25 μg/ml (HAX42 peptides, first column): 2.21; Binding value at 25 μg/ml (HAX42 peptides, second column): 1.41; Binding value at 25 μg/ml (HAX42 peptides, third column): 1.63
